Results reported in ChEMBL document CHEMBL1132010, “In vivo anti-HIV activity of (+)-calanolide A in the hollow fiber mouse model” (Bioorg Med Chem Lett, 1999).

Assays:
[1] = system: Mus musculus; experiment: Compound dose (dosing schedule - q8h) that prevented a decrease in RT activity and p24 antigen production without increase in cell viability in mice.* dose was found to be toxic; assay type: functional
[2] = system: Mus musculus; experiment: Compound dose required to produce significant anti-HIV activity in mice after i.p. administration, given twice daily (q12h); assay type: functional
[3] = system: Mus musculus; experiment: Compound dose required to produce significant anti-HIV activity in mice after oral administration, given twice daily (q12h); assay type: functional
[4] = Compound dose that was proved to be lethally toxic to mice (q12h); assay type: ADME; conditions: mouse, in vivo
[5] = Compound dose that was proved to be lethally toxic to mice (q24h); assay type: ADME; conditions: mouse, in vivo
[6] = system: Mus musculus; experiment: Compound dose (dosing schedule - q8h) that produced a decrease in RT activity without protection against decreased cell viability in mice; assay type: functional

CCCc1cc(=O)oc2c3c(c4c(c12)OC(C)(C)C=C4)O[C@H](C)[C@@H](C)[C@@H]3O [CALANOLIDE A]
Dose [1]: 150 mg/kg | Dose [2]: 200 mg/kg | Dose [3]: 150 mg/kg | Toxic [4]: 200 mg/kg | Toxic [5]: 300 mg/kg | Dose [6]: 100 mg/kg
